Assay results taken from US6057447A, “Quinoline sulfide derivatives” (Zenyaku Kogyo Kabushiki Kaisha, priority 1996, dated 2000).
Values after ≈ are worked out from the molar mass of the structure shown.

What was measured:
Assay type in all cases: cell-based
[1] = tested on: Helicobacter pylori standard strain ATCC 43526 (NCTC 11916); experiment: Antibacterial Test 1: MIC against Helicobacter pylori, agar plate dilution method (anaerobic MIC method); conditions: 72 h, Hp ATCC 43526, agar plate dilution, 37° C., 3 days
E. coli NIHJ JC-2 = experiment: Antibacterial Test 2: MIC, agar dilution method (aerobic MIC method); conditions: Escherichia coli, NIHJJC2
Method: (§1) Then, tested were antibacterial activities of the typical compounds of the present invention against gram-positive and -negative bacteria other than Hp. MICs of the typical compounds of the present invention were determined in substantial accordance with agar dilution method (aerobic MIC method) based on standard method of the Japan Society Chemotherapy.
(§2) The respective test compound were dissolved in dimethyl sulfoxide (DMSO) and serially diluted twofold to prepare solutions of the compounds with concentration of 0.05-100 μg/ml. The solutions of the compounds were respectively added to sensitive-disk agar medium-N (manufactured by NISSUI SEIYAKU) to prepare agar plates for determination.
(§3) The below-mentioned strains freezingly conserved at -135° C. were thawed in a warm bath (40° C.), cultured in a sensitivity-determining bouillon at 37° C. for 18-20 hours, and then diluted with the above-mentioned medium to prepare about 1.0×10^6 CFU/ml of bacterial suspension.
(§4) Inoculation was made by 5 μl by multi-inoculator (manufactured by SAKUMA SEISAKUSHO). Culturing was made under the same conditions as those of the pre-culturing and the MIC (unit: μg/ml) was determined by observing whether the bacteria grew or not.

S. aureus FDA 209P = experiment: as above; conditions: Staphylococcus aureus, FDA209P
Method: as §1, §2, §3, §4

P. aeruginosa IFO 3445 = experiment: as above; conditions: Pseudomonas aeruginosa, IFO3445
Method: as §1, §2, §3, §4

E. faecalis RIMD 3336001 = experiment: as above; conditions: Enterococcus faecalis, RIMD3336001
Method: as §1, §2, §3, §4

B. subtilis PCI 219 = experiment: as above; conditions: Bacillus subtilis, PCI219
Method: as §1, §2, §3, §4

M. luteus ATCC 9341 = experiment: as above; conditions: Micrococcus luteus, ATCC9341
Method: as §1, §2, §3, §4

K. pneumoniae PCI 602 = experiment: as above; conditions: Klebsiella pneumoniae, PCI602
Method: as §1, §2, §3, §4

| Compound | MIC [1] | MIC (E. coli NIHJ JC-2) | MIC (S. aureus FDA 209P) | MIC (P. aeruginosa IFO 3445) | MIC (E. faecalis RIMD 3336001) | MIC (B. subtilis PCI 219) | MIC (M. luteus ATCC 9341) | MIC (K. pneumoniae PCI 602) |
| --- | --- | --- | --- | --- | --- | --- | --- | --- |
| O=C(CSc1ccnc2ccccc12)c1ccc(N2CCOCC2)cc1 [Compound 11, 4-[2-(4-Morpholinophenyl)-2-oxoethylthio]quinoline] | 0.0125 µg/mL (≈ 0.0343 µM) | > 100 µg/mL | > 100 µg/mL | > 100 µg/mL | > 100 µg/mL | > 100 µg/mL | > 100 µg/mL | > 100 µg/mL |
| O=C(CSc1ccnc2ccccc12)c1ccc(NCc2ccccc2)cc1 [Compound 23, 4-[2-(4-Benzylaminophenyl)-2-oxoethylthio]quinoline] | 0.025 µg/mL (≈ 0.065 µM) | > 100 µg/mL | > 100 µg/mL | > 100 µg/mL | > 100 µg/mL | > 100 µg/mL | > 100 µg/mL | > 100 µg/mL |
| CC(C)(C)OC(=O)N1CCN(c2ccc(C(=O)CSc3ccnc4ccccc34)cc2)CC1 [Compound 49, 4-[2-[4-(4-tert-Butoxycarbonyl-1-piperazinyl)phenyl]-2-oxoethylthio]quinoline] | 0.0008 µg/mL (≈ 0.00173 µM) | > 100 µg/mL | > 100 µg/mL | > 100 µg/mL | > 100 µg/mL | > 100 µg/mL | > 100 µg/mL | > 100 µg/mL |
| O=C(CSc1ccnc2ccccc12)c1ccc2ccccc2c1 [Compound 2, 4-[2-(2-Naphtyl)-2-oxoethylthio]quinoline] | 0.2 µg/mL (≈ 0.607 µM) | > 100 µg/mL | > 100 µg/mL | > 100 µg/mL | > 100 µg/mL | > 100 µg/mL | > 100 µg/mL | > 100 µg/mL |
| O=C(CSc1ccnc2ccccc12)c1ccc(OCc2ccccc2)cc1 [Compound 1, 4-[2-(4-Benzyloxyphenyl)-2-oxoethylthio]quinoline] | 0.05 µg/mL (≈ 0.13 µM) | > 100 µg/mL | > 100 µg/mL | > 100 µg/mL | > 100 µg/mL | > 100 µg/mL | > 100 µg/mL | > 100 µg/mL |
| CSc1ccc2c(SCc3ccc(N(C)C)cc3)ccnc2c1 [Compound 31, 4-(4-Dimethylaminobenzylthio)-7-methylthioquinoline] | 0.1 µg/mL (≈ 0.294 µM) | > 100 µg/mL | > 100 µg/mL | > 100 µg/mL | > 100 µg/mL | > 100 µg/mL | > 100 µg/mL | > 100 µg/mL |
| Cc1c(OCC(F)(F)F)ccnc1C[S+]([O-])c1nc2ccccc2[nH]1 (centres unmarked) [lansoprazole, reference compound] | 12.5 µg/mL (≈ 33.8 µM) | > 100 µg/mL | > 100 µg/mL | > 100 µg/mL | > 100 µg/mL | > 100 µg/mL | > 100 µg/mL | > 100 µg/mL |
| CC(C)(C)c1ccc(C(=O)CSc2ccnc3ccccc23)cc1 [Compound 5, 4-[2-(4-tert-Butylphenyl)-2-oxoethylthio]quinoline] | 0.025 µg/mL (≈ 0.0745 µM) | > 100 µg/mL | > 100 µg/mL | > 100 µg/mL | > 100 µg/mL | > 100 µg/mL | > 100 µg/mL | > 100 µg/mL |
| O=C(CSc1ccnc2ccccc12)c1ccc(N2CCCCC2)cc1 [Compound 22, 4-[2-(4-Piperidinophenyl)-2-oxoethylthio]quinoline] | 0.0062 µg/mL (≈ 0.0171 µM) | > 100 µg/mL | > 100 µg/mL | > 100 µg/mL | > 100 µg/mL | > 100 µg/mL | > 100 µg/mL | > 100 µg/mL |
| CC[C@H]1OC(=O)[C@H](C)[C@@H](O[C@H]2C[C@@](C)(OC)[C@@H](O)[C@H](C)O2)[C@H](C)[C@@H](O[C@@H]2O[C@H](C)C[C@H](N(C)C)[C@H]2O)[C@](C)(OC)C[C@@H](C)C(=O)[C@H](C)[C@@H](O)[C@]1(C)O [clarithromycin, reference compound] | 0.025 µg/mL (≈ 0.0334 µM) | 100 µg/mL (≈ 134 µM) | 0.1 µg/mL (≈ 0.134 µM) | > 100 µg/mL | 0.39 µg/mL (≈ 0.521 µM) | 0.2 µg/mL (≈ 0.267 µM) | ≤ 0.05 µg/mL | 6.25 µg/mL (≈ 8.36 µM) |
| CC1(C)S[C@@H]2[C@H](NC(=O)[C@H](N)c3ccc(O)cc3)C(=O)N2[C@H]1C(=O)O [amoxicillin, reference compound] | 0.05 µg/mL (≈ 0.137 µM) | 3.13 µg/mL (≈ 8.57 µM) | 0.1 µg/mL (≈ 0.274 µM) | > 100 µg/mL | 0.2 µg/mL (≈ 0.547 µM) | 0.2 µg/mL (≈ 0.547 µM) | ≤ 0.05 µg/mL | 50 µg/mL (≈ 137 µM) |
| CN(C)c1ccc(C(=O)CSc2ccnc3ccccc23)cc1 [Compound 26, 4-[2-(4-Dimethylaminophenyl)-2-oxoethylthio]quinoline] | 0.1 µg/mL (≈ 0.31 µM) | > 100 µg/mL | > 100 µg/mL | > 100 µg/mL | > 100 µg/mL | > 100 µg/mL | > 100 µg/mL | > 100 µg/mL |
| CN(C)c1ccc(CCSc2ccnc3ccccc23)cc1 [Compound 27, 4-[2-(4-Dimethylaminophenyl)ethylthio]quinoline] | 0.1 µg/mL (≈ 0.324 µM) | > 100 µg/mL | 50 µg/mL (≈ 162 µM) | > 100 µg/mL | > 100 µg/mL | > 100 µg/mL | > 100 µg/mL | > 100 µg/mL |
| COc1ccc(COc2ccc(C(=O)CSc3ccnc4ccccc34)cc2OC)cc1 [Compound 58, 4-[2-[3-Methoxy-4-(4-methoxybenzyloxy)phenyl]-2-oxoethylthio]quinoline] | 0.0031 µg/mL (≈ 0.00696 µM) | – | – | – | – | – | – | – |
| CSc1ccc2c(SCc3ccc(N)cc3)ccnc2c1 [Compound 34, 4-(4-Aminobenzylthio)-7-methylthioquinoline] | 0.2 µg/mL (≈ 0.64 µM) | > 100 µg/mL | > 100 µg/mL | > 100 µg/mL | > 100 µg/mL | > 100 µg/mL | > 100 µg/mL | > 100 µg/mL |
| CCCCCCCNc1ccc(C(=O)CSc2ccnc3ccccc23)cc1 [Compound 69, 4-[2-[4-(Heptylamino)phenyl]-2-oxoethylthio]quinoline] | 0.025 µg/mL (≈ 0.0637 µM) | – | – | – | – | – | – | – |
| O=C(CSc1ccnc2ccccc12)c1ccc(N2CCOCC2)c(Br)c1 [Compound 10, 4-[2-(3-Bromo-4-morpholinophenyl)-2-oxoethylthio]-quinoline] | 0.0031 µg/mL (≈ 0.00699 µM) | > 100 µg/mL | > 100 µg/mL | > 100 µg/mL | > 100 µg/mL | > 100 µg/mL | > 100 µg/mL | > 100 µg/mL |
| CCCCCCOc1ccc(C(=O)CSc2ccnc3ccccc23)c(OC)c1 [Compound 55, 4-[2-[2-Methoxy-4-hexyloxyphenyl]-2-oxoethylthio]-quinoline] | 0.0062 µg/mL (≈ 0.0151 µM) | – | – | – | – | – | – | – |
| CS(=O)(=O)N1CCN(c2ccc(C(=O)CSc3ccnc4ccccc34)cc2)CC1 [Compound 86, 4-[2-[4-(4-Methanesulfonyl-1-piperazinyl)phenyl]-2-oxoethylthio]quinoline] | 0.0031 µg/mL (≈ 0.00702 µM) | – | – | – | – | – | – | – |
| CNc1ccc(CSc2ccnc3cc(SC)ccc23)cc1C [Compound 39, 4-(3-Methyl-4-methylaminobenzylthio)-7-methylthioquinoline] | 0.1 µg/mL (≈ 0.294 µM) | – | – | – | – | – | – | – |
| OC(CSc1ccnc2ccccc12)c1ccc2ccccc2c1 (centres unmarked) [Compound 61, 4-[2-(2-Naphtyl)-2-hydroxyethylthio]quinoline] | 0.2 µg/mL (≈ 0.603 µM) | – | – | – | – | – | – | – |
| CC(C)(C)OC(=O)Nc1ccc(C(=O)CSc2ccnc3ccccc23)cc1 [Compound 30, 4-[2-(4-tert-Butoxycarbonylaminophenyl)-2-oxoethylthio]-quinoline] | 0.1 µg/mL (≈ 0.253 µM) | – | – | – | – | – | – | – |
| CSc1ccc2c(SCc3ccc(N4CCN(C=O)CC4)cc3)ccnc2c1 [Compound 63, 4-[4-(4-Formyl-1-piperazinyl)benzylthio]-7-methylthioquinoline] | 0.1 µg/mL (≈ 0.244 µM) | – | – | – | – | – | – | – |
